From the NIST ThermoML archive (doi:10.1016/j.fluid.2010.01.002)

Experiment: mn = molality of the nth substance listed, in mol/kg
Settings: 101 kPa, Liquid, Vibrating tube method

COS(=O)(=O)[O-].Cn1cc[n+](C)c1 [1,3-dimethylimidazolium methylsulfate] + O
mass density [kg/m3]
Settings	298.15 K	308.15 K	318.15 K	328.15 K
m1 = 0.0095	997.56	994.57	990.75	986.12
m1 = 0.018	998.03	995.02	991.2	986.56
m1 = 0.0236	998.32	995.31	991.48	986.84
m1 = 0.0316	998.76	995.73	991.89	987.25
m1 = 0.0414	999.29	996.24	992.39	987.74
m1 = 0.0611	1000.34	997.25	993.38	988.72
m1 = 0.0788	1001.28	998.16	994.27	989.59
m1 = 0.0914	1001.94	998.8	994.9	990.2
m1 = 0.1165	1003.24	1000.06	996.14	991.43
m1 = 0.1441	1004.65	1001.43	997.49	992.77
m1 = 0.1816	1006.53	1003.27	999.3	994.58
m1 = 0.2172	1008.25	1004.99	1001	996.25
m1 = 0.2724	1010.92	1007.59	1003.6	998.8
m1 = 0.3964	1016.79	1013.25	1009.26	1004.4
m1 = 0.4557	1019.55	1015.89	1011.88	1006.99
m1 = 0.5756	1024.98	1021.08	1017.04	1012.19
m1 = 0.7108	1030.77	1026.7	1022.63	1017.83
m1 = 1.826	1071.65	1065.12	1061.7	1057
